Reference: publication PMC2774495 (Cancer chemotherapy and pharmacology, 2009)
Like-named read-outs stand apart in the source and are kept apart here.

Experiments:
CYP1A2 = conditions: read-out: Ki for inhibition of CYP1A2; in vitro; cited from earlier work
2C9 = conditions: read-out: Ki for inhibition of CYP2C9; in vitro; cited from earlier work
expressed CYP2A6 = molecular target: T1, expressed CYP2A6 (Homo sapiens, UniProt P11509); test: Inhibition of expressed CYP2A6; type: biochemical
T1 sequence (P11509 1-494): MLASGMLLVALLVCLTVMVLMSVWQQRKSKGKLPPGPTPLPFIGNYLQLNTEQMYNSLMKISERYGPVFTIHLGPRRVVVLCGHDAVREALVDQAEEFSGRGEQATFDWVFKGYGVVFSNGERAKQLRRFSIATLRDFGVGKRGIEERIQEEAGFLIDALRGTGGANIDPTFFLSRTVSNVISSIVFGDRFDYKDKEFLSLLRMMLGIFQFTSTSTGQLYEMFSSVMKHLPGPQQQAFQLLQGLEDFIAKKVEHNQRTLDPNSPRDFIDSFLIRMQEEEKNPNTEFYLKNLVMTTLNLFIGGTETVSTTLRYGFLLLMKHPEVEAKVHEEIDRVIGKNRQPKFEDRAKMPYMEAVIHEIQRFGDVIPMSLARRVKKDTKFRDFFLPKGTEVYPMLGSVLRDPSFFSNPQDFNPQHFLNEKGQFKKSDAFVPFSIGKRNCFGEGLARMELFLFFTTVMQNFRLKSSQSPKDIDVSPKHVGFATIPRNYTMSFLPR

CYP2C8 = test: Inhibition of CYP2C8; type: biochemical; conditions: human, human liver microsomes, pH 7.4, probe amodiaquine 5 μM (desethylation)
CYP3A = test: Inhibition of CYP3A; type: biochemical; conditions: human, human liver microsomes, pH 7.4, probe midazolam 10 μM (1′-hydroxylation)
CYP isoforms = test: Assessment of time-dependent inactivation; type: biochemical, human; conditions: preincubation 0 and 15 min with HLM and cofactors, data not shown
CYP2A6 [1] = molecular target: T2, CYP2A6 (Homo sapiens, UniProt P11509); test: Prediction of in vivo AUC change of CYP2A6 substrates from in vitro Ki; conditions: for AUCI/AUCUI ratio expected in vivo, CYP2A6, free letrozole: unbound letrozole (fu 0.2–0.4)
T2 sequence (P11509 1-494): T1 sequence (P11509 1-494)

CYP2C19 [2] = molecular target: T3, CYP2C19 (Homo sapiens, UniProt P33261)
[3] = cited from earlier work
[4] = cited from earlier work; remark: listed apart in the source
[5] = rat liver tissues; cited from earlier work
[6] = cited from earlier work; remark: listed apart in the source
CYP2A6 [7] = molecular target: T2, CYP2A6; test: in vitro; conditions: microsomes, pH 7.4
CYP2B6 [8] = molecular target: T4, CYP2B6 (Homo sapiens, UniProt P20813); test: in vitro; conditions: microsomes, pH 7.4
T4 sequence (P20813 1-491): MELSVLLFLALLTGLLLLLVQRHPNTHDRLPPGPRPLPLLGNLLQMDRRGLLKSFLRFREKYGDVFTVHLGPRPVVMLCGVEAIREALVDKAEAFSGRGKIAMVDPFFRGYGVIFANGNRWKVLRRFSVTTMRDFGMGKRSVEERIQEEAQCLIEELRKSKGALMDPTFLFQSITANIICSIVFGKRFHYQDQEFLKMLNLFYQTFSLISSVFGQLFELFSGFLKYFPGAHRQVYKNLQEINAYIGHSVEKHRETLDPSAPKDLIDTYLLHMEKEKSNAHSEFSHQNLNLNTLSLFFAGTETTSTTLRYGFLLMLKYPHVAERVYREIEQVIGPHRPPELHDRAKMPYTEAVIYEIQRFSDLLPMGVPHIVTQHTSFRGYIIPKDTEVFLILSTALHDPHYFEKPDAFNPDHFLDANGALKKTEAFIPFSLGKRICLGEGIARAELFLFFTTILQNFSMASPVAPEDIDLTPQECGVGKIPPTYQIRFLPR

CYP2C9 = CYP2C9 (Homo sapiens, UniProt P11712); test: in vitro; conditions: microsomes, pH 7.4
CYP2D6 = CYP2D6 (Homo sapiens, UniProt P10635); test: in vitro; conditions: microsomes, pH 7.4
CYP2C19 [9] = molecular target: T3, CYP2C19; test: biochemical
expressed CYP2C19 [10] = molecular target: T5, expressed CYP2C19 (Homo sapiens, UniProt P33261); test: biochemical
CYP2A6 [11] = molecular target: T2, CYP2A6; test: Inhibition of CYP2A6
expressed CYP2B6 = molecular target: T6, expressed CYP2B6 (Homo sapiens, UniProt P20813); test: Inhibition of expressed CYP2B6; type: biochemical; conditions: read-out: Ki values, expressed CYP2B6; expressed CYP2B6 52 pmol/ml, efavirenz 10–75 μM, mean ± SE, competitive model
T6 sequence (P20813 1-491): T4 sequence (P20813 1-491)

expressed CYP2C19 [12] = molecular target: T5, expressed CYP2C19; conditions: read-out: Ki values, expressed CYP2C19; expressed 2C19 52 pmol/ml, S-mephenytoin 10–75 μM, mean ± SE, competitive model
CYP2B6 [13] = molecular target: T4, CYP2B6; test: Inhibition of CYP2B6

T5 sequence (P33261 whole entry): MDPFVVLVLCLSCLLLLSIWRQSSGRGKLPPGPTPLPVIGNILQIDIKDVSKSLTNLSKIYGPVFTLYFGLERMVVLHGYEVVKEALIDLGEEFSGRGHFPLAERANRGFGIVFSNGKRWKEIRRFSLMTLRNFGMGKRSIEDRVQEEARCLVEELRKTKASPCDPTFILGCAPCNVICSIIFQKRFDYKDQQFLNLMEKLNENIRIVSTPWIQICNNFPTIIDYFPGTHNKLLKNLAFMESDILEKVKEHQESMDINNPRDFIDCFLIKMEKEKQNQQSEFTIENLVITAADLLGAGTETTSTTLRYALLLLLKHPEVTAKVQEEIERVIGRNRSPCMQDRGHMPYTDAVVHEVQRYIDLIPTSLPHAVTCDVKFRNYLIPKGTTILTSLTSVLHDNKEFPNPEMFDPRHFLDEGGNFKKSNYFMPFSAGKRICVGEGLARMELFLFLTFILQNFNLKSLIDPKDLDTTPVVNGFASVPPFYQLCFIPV
T3 sequence (P33261 whole entry): as above
CYP2C9, sequence (P11712 whole entry): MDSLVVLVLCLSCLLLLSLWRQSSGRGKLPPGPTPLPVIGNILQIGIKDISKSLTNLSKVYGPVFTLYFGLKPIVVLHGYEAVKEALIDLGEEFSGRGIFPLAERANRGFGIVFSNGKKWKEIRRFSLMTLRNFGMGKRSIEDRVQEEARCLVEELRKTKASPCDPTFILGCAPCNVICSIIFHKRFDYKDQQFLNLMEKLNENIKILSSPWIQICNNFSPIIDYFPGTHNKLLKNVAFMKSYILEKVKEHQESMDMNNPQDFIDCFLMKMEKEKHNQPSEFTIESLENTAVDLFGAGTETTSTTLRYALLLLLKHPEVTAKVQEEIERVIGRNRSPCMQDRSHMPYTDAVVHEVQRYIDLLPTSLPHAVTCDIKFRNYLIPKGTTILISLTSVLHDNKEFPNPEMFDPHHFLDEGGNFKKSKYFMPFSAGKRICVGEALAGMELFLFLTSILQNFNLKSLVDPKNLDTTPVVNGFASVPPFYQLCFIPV
CYP2D6, sequence (P10635 whole entry): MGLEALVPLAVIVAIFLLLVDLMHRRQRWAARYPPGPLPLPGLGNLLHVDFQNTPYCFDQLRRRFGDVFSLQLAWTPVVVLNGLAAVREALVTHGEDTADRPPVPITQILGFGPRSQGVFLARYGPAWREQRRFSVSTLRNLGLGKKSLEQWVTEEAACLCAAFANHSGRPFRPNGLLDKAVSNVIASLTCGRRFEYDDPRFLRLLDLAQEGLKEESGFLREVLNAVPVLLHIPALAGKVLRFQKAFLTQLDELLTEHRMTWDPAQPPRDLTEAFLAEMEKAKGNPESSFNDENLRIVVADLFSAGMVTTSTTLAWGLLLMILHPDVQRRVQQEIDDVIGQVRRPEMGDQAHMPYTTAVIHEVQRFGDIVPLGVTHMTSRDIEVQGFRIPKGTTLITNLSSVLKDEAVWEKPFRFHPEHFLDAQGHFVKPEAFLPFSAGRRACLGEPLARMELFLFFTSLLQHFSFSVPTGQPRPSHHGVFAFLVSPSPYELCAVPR

CC(C)(C#N)c1cc(Cn2cncn2)cc(C(C)(C)C#N)c1 [anastrozole]
Ki (CYP1A2): 8 to 10 µM
Ki (2C9): 8 to 10 µM

N#Cc1ccc(C(c2ccc(C#N)cc2)n2cncn2)cc1 [letrozole, 4,4′-[(1H-1,2,4-triazol-1-yl)methylene] bis-benzonitrile]
IC50 (expressed CYP2A6): 12.5 µM
Ki (expressed CYP2A6): 5 ± 2.4 µM
inhibition at 15 min, 100 μM (CYP2C8): < 20%
inhibition at 5 min, 100 μM (CYP3A): < 20%
Time dependence of inhibition of CYPs (CYP isoforms): not time dependent
AUCI/AUCUI ratio expected in vivo, CYP2A6, total letrozole (CYP2A6 [1]; letrozole plasma concentration 0.5–1 μM (bound + unbound), Ki from HLMs): 1.11–1.22
Predicted increase in exposure of CYP2A6 substrates (maximum) (CYP2A6 [1]; predicted from in vitro Ki): 11–22%
AUCI/AUCUI ratio expected in vivo, CYP2A6, free letrozole (CYP2A6 [1]; Ki from HLMs): close to unity
AUCI/AUCUI ratio expected in vivo, CYP2A6, free letrozole (CYP2A6 [1]; Ki from HLMs, listed as Letrozole): 1.04–1.09
Fold Ki for CYP2C19 above therapeutic plasma concentrations of letrozole (CYP2C19 [2]; human): over 40 fold
Mode of inhibition of CYP2C19 (CYP2C19 [2]; microsomes): competitive
Absolute bioavailability [3]: 99.9%
Exposure at steady state higher than at a single dose [3]: 28%
Radioactivity in plasma accounted by unchanged drug ([3]; following 14C-labeled letrozole (2.5 mg)): Approximately 82%
Cmax ([3]; read-out: Average maximum plasma concentration (Cmax) at steady state, women with breast cancer, 2.5 mg/day): ~500 nM
Plasma protein binding [4]: 60%
Liver tissue concentration relative to plasma [5]: > sevenfold
Effect on the pharmacokinetics of known CYP substrates including warfarin, diazepam, and tamoxifen [6]: lack of letrozole's effect
Ki at 15 min (CYP2A6 [7]): 4.6 ± 0.1 µM
inhibition at 10 min, 100 μM (CYP2B6 [8]): < 20%
inhibition at 60 min, 100 μM (CYP2C9): < 20%
inhibition at 30 min, 100 μM (CYP2D6): < 20%
IC50 (CYP2C19 [9]): 24.8 µM
Ki (CYP2C19 [9]): 42.2 ± 3.8 µM
IC50 (expressed CYP2C19 [10]): 62.9 µM
Ki (expressed CYP2C19 [10]; Ki values, expressed CYP2C19, expressed 2C19 52 pmol/ml, S-mephenytoin 10–75 μM, mean ± SE, competitive model): 33.3 µM
IC50 (CYP2A6 [11]): 5.9 µM
Mode of inhibition of CYP2A6 (CYP2A6 [11]; Dixon plots and enzyme inhibition models, HLMs and expressed CYP2A6): competitive

N#Cc1ccc(C(O)c2ccc(C#N)cc2)cc1 [letrozole metabolite, 4,4′-methanol-bisbenzonitrile]
Ki (expressed CYP2B6): 40.4 ± 14.6 µM
Mode of inhibition of CYP2C19 (CYP2C19 [2]; Dixon plots and enzyme inhibition models, HLMs and expressed CYP2C19): competitive
Ki (CYP2C19 [2]; read-out: Ki values, CYP2C19, HLMs, HLMs (SD-101) 0.5 mg/ml, S-mephenytoin 10–75 μM, mean ± SE, competitive model): 19.5 ± 0.5 µM
Ki (expressed CYP2C19 [12]): 4.5 ± 0.7 µM
Fraction of letrozole dose accounted for by the metabolite ([3]; human): over 60%
Effect on CYP2A6 activity (CYP2A6 [11]; HLMs, 0–100 μM): lack of any effect
Mode of inhibition of CYP2B6 (CYP2B6 [13]; Dixon plots and enzyme inhibition models, HLMs and expressed CYP2B6): competitive
Ki (CYP2B6 [13]; read-out: Ki values, CYP2B6, HLMs, HLMs (HL-091499) 0.5 mg/ml, efavirenz 10–75 μM, mean ± SE, competitive model): 12.9 ± 3.8 µM
